{"source": "paper PMC12661054", "about": "“The CIP2A-TOPBP1 axis facilitates mitotic DNA repair via MiDAS and MMEJ” (Nature Communications, 2025)", "tested_on": "eGFP-SLX4 and MUS81", "test": "Chromatin residency of eGFP-SLX4 and MUS81 (chromatin-fraction co-IP)", "assay_type": "cell-based, human", "details": "acute CDK1 inhibition, eGFP-SLX4 Co-IP from mitotic chromatin", "method": "Cell pellets stored at −80 °C were thawed on ice, followed by addition of ten volumes to 1 NIB-250 (15 mM Tris-HCL (pH 7.5), 60 mM KCl, 15 mM NaCl, 5 mM MgCl2, 1 mM CaCl2, 250 mM sucrose) containing 1 mM DTT, 1x cOmplete, EDTA-free Protease Inhibitor +0.3% NP. The cells were mixed by pipetting gently and then incubated on ice for 10 min. The cell pellet was then centrifuged at 400–600 x g for 5 min at 4 °C. The supernatant was transferred to a separate tube (cytoplasmic fraction). The nuclei pellet was then resuspended in ten volumes of 10:1 NIB-250 without detergent containing 1 mM DTT and 1x cOmplete, EDTA-free Protease Inhibitor. The nuclei were then pelleted by centrifugation at 400–600 x g for 5 min at 4 °C and the supernatant was discarded. The pellet was then resuspended 7 volumes relative to pellet volume of hypotonic buffer (3 mM EDTA, 0.2 mM EGTA containing 1 mM DTT and 1x cOmplete, EDTA-free Protease Inhibitor) and incubated on ice for 30 min, vortexing every 5 min. The insoluble chromatin fraction was collected by centrifugation for 4 min at 1700 x g. The supernatant, was retained, containing the nucleoplasm fraction. The chromatin pellet was washed with hypotonic buffer containing 1 mM DTT and protease inhibitors and the above centrifugation was repeated. The supernatant was discarded and the pellet retained and used as starting material for immunoprecipitation experiments. […]", "data": [{"smiles": "O=C1NC(=NCc2cccs2)S/C1=C\\c1ccc2ncccc2c1", "note": "[CDK1i]", "values": [{"measurement": "chromatin residency of eGFP-SLX4 and MUS81", "value": "markedly impaired chromatin residency of eGFP-SLX4 and MUS81"}]}]}
